system: electrically-induced seizures in mice; assay: Maximal electroshock seizure (MEST) threshold test, mouse model; assay type: in vivo; details: 10 mg/kg oral, suspension in methyl cellulose, one hour post dosing
Procedure: (§1) The maximal electroshock seizure (MEST) threshold test in rodents is particularly sensitive for detecting potential anticonvulsant properties^1. In this model, anticonvulsant agents elevate the threshold to electrically-induced seizures whilst proconvulsants lower the seizure threshold.
Mice (naive male, Charles River, U.K. CD1 strain, 25-30 g) are randomly assigned to groups of 10-20 and dosed orally or intraperitoneally at a dose volume of 10 ml/kg with various doses of compound (0.3-300 mg/kg) or vehicle. Mice are then subjected at 30 or 60 min post dose to a single electroshock (0.1 sec, 50 Hz, sine wave form) administered via corneal electrodes. The mean current and standard error required to induce a tonic seizure in 50% (CC50) of the mice in a particular treatment group is determined by the ‘up and down’ method of Dixon and Mood (1948)^2. Statistical comparisons between vehicle- and drug-treated groups are made using the method of Litchfield and Wilcoxon (1949)^3.
In control animals the CC50 is usually 14-18 mA. […] If a tonic convulsion does occur, then the current is decreased, and so on until all the animals in the group have been tested.
Studies are carried out using a Hugo Sachs Electronik Constant Current Shock Generator with totally variable control of shock level from 0 to 300 mA and steps of 2 mA are usually used.

| SMILES | increase in seizure threshold [%] |
| --- | --- |
| CN1CCc2ccc(NC(=O)c3ccc(Oc4ccccc4)cc3)cc2C1 [Example 7, N-(2-Methyl-1,2,3,4-tetrahydroisoquinolin-7-yl)-4-phenoxybenzamide] | 23 |
| CN1CCc2ccc(NC(=O)c3ccc(C(C)(C)C)cc3)cc2C1 [Example 5, N-(2-Methyl-1,2,3,4-tetrahydroisoquinolin-7-yl)-4-t-butylbenzamide] | 36 |
| CC(C)Oc1ccc(C(=O)Nc2ccc3c(c2)CN(C)CC3)cc1 [Example 6, N-(2-Methyl-1,2,3,4-tetrahydroisoquinolin-7-yl)-4-iso-propoxybenzamide] | 90 |
| CN1CCc2ccc(NC(=O)c3cccc(Cl)c3)cc2C1 [Example 4, N-(2-Methyl-1,2,3,4-tetrahydroisoquinolin-7-yl)-3-chlorobenzamide] | 24 |

system: maximal (tonic hindlimb extension) electroshock seizures in male rats; assay: Maximal electroshock seizure (MEST) threshold test, rat model; assay type: in vivo; details: 2 mg/kg p.o. at 2 h, suspended in 1% methyl cellulose
Procedure: as §1
The threshold for maximal (tonic hindlimb extension) electroshock seizures in male rats (Sprague Dawley, 80-150 g, 6 weeks old) was determined by a Hugo Sachs Electronik stimulator which delivered a constant current (0.3 sec duration, from 1-300 mA in steps of 5-20 mA). The procedure is similar to that outlined above for mouse and full details are as published by Upton et al,.^4
The percentage increase or decrease in CC50 for each group compared to the control is calculated.
Drugs are suspended in 1% methyl cellulose.

| SMILES | increase in CC50 (seizure threshold) compared to control [%] |
| --- | --- |
| CC(C)c1ccc(C(=O)Nc2ccc3c(c2)CN(C)CC3)cc1C#N.Cl [Example 67, N-(2-Methyl-1,2,3,4-tetrahydroisoquinolin-7-yl)-3-cyano-4-iso-propylbenzamide, hydrochloride] | 303 |
| COc1ccc(C(=O)Nc2ccc3c(c2)CN(C)CC3)cc1C(F)(F)F [Example 51, N-(2-Methyl-1,2,3,4-tetrahydroisoquinolin-7-yl)-4-methoxy-3-trifluoromethylbenzamide] | 545 |
| CC(C)Oc1ccc(C(=O)Nc2ccc3c(c2)CN(C)CC3)cc1Cl [Example 48, N-(2-Methyl-1,2,3,4-tetrahydroisoquinolin-7-yl)-3-chloro-4-iso-propoxybenzamide] | 389 |
| CCOc1ccc(C(=O)Nc2ccc3c(c2)CN(C)CC3)cc1Br [Example 49, N-(2-Methyl-1,2,3,4-tetrahydroisoquinolin-7-yl)-3-bromo-4-ethoxybenzamide] | 325 |

system: not given; assay: not given; details: not given

| SMILES | melting point [°C] |
| --- | --- |
| O=C(Nc1ccc2c(c1)CNCC2)c1ccc(Cl)s1.O=C(O)C(F)(F)F [Example 1, N-(1,2,3,4-Tetrahydroisoquinolin-7-yl)-5-chlorothiophene-2-carboxamide, monotrifluoroacetate] | 153 to 155 |
| CN1CCc2ccc(NC(=O)c3cccc(C(=O)C(C)(C)C)c3)cc2C1.Cl | 197 to 201 |

— US6841560B2, “Substituted isoquinoline derivatives and their use as anticonvulsants” (SmithKline Beecham p.l.c., priority 1997, dated 2005)
